Patent publication US8552064B2, “Suramin and derivatives thereof as topical microbicide and contraceptive” (Eastern Virginia Medical School, priority 2005, dated 2013)
In brackets after ≈: the same amount, converted by molar mass. Read-outs that look alike come from different tables or passages of the source.

Columns and labels:
[1] = system: human vaginal cell line (VK2); type: cell-based
Procedure: Vaginal cytotoxicity was determined by 3-[4,5-dimethylthiazol-2-yl]-2,5-diphenyl tetrazolium bromide (MTT) assay and cytokine assays, both as described in Fichorova R. N. et al., J. Infect. Dis. 184(4): 418-28, 2001). The MTT assay assesses the cytotoxicity of various compounds against cell lines by plating the desired cells prior to exposure to the compounds. On the day of treatment, culture medium was carefully aspirated from the wells and replaced with fresh medium containing the test compound at various concentrations. The cells were incubated with the various compounds for 6 hours, washed with fresh medium and MTT was then added and the plates were incubated at 37° C. for a period of time sufficient to allow MTT to form formazan crystals by reacting with metabolically active cells. The formazan crystals were solubilized overnight at 37° C. in a solution containing 10% SDS in 0.01 M HCl. The absorbance of each well was measured in a microplate reader (Dynex) at 540 nm and a reference wavelength of 690 nm.

Lactobacillus gasseri = assay: Lactobacilli growth; type: cell-based
rabbit sperm = assay: Rabbit contraceptive efficacy, intravaginal application; type: in vivo
Procedure: Semen was collected from New Zealand White (NZW) male rabbits with the aid of an artifical vagina, pooled and adjusted with a modified Tyrode's albumin lactate pyruvate (TALP) medium to 50 million motile sperm per milliliter. Ovulation was induced in females by injection of 200 IU of human chorionic gonadotropin (hCG) intravenously. Under the ex-vivo (in-vitro) mixing protocol, sperm were incubated with indicated suramin test compounds in a tube for 15 minutes at 37° C. prior to insemination (0.5 mL) as described in Anderson R. A., et al. J. Androl., 21: 862-875 (2000). […] Sperm-compound contact, in this case, took place in vivo, inside the vagina. Insemination and administration of the compound was performed with a flexible, 12 cm long polyurethane catheter. The main endpoints for both protocols were the number of implantation sites counted 11 days after insemination and pregnancy rate. Such sites were counted by visual inspection of the tubes.

[2] = system: human sperm acrosome reaction; assay: Acrosome reaction ionophore challenge test (ARIC); type: cell-based
Description: The acrosome reaction ionophore challenge test (ARIC) was used, as described in Cummins J. M., et al., J. Androl., 12: 98-103 (1991), to measure the proportion of spermatozoa that respond to a calcium ionophore (typically, A23187), developing an acrosome reaction. More specifically, this test was used to determine whether suramin sodium affects the ionophore-induced acrosome reaction of the sperm, therefore altering the capacity of sperm to penetrate an egg. Results are expressed in percent inhibition of control (untreated sperm) acrosome reactions. 2.

[3] = Pharmacokinetics in female rats, intravenous and intravaginal; type: in vivo, rat; settings: for Vd: read-out: Vdss
Procedure: Female rats (n=6) were administered with 30 mg of compound per kg in a single I.V. dose in saline or intravaginally, BID, for 5 days, formulated in KY jelly. The selected single dose represented 10 times the estimated human dose (250 mg). […] Following intravenous administration, relatively high concentrations of suramin sodium (mean value=563 μg/mL) were measured in plasma at 1 hour (first time-point) following the onset of dosing. […] The mean volume of distribution was calculated at 147 mL/kg.

HSV-2 = assay: HSV plaque assay, HSV-2; type: cell-based, HSV (type 2 strain 333)
Procedure: Evaluation of anti-HSV activity of suramin was based on the method described by Herold et al., J. Virol., 70: 3461-3469 (1996). The compound was serially diluted (1000 μg/ml to 1.0 μg/ml) in phosphate-buffered saline (PBS), and each dilution was mixed with each of two serial dilutions (10^−5 and 10^−6) HSV (type 2 strain 333). Working viral titers were […]. Samples (1 ml) of each mixture were plated in duplicate on washed and drained confluent monolayers of CaSki cells (a human cervical epithelial cell line, obtained from the American Type Culture Collection, Rockville, Md.) on the bottoms of 25 cm^2 flasks. Initial titer (indicated in the control cultures with no added test agent) in each culture was given as pfu/ml. The flasks were incubated for 2 hours, after which the medium (containing virus and test compound) was removed and the cells were washed with PBS. Cells were cultured for 3 days in medium 199, supplemented with 1% serum and 0.5% methyl cellulose that contained anti-HSV antibodies to prevent the formation of secondary plaques. Cells were stained with Giemsa for the counting of viral plaques by phase contrast microscopy. The viral titer was inferred from the number of plaques, after correction for dilutions. Values were corrected to a control titer 5×10^8 pfu/ml. Data were expressed as viral titer and as the percentage of plaques that are counted in control cell cultures (not exposed to test agent). […] The concentration of the compound that was required to reduce the viral titer by 50% (IC50) was estimated with curve-fitting software (TableCurve 2D, version 3.02) from plots of plaque-forming units (pfu) per ml as a function of concentration of the compound.

[4] = female, rat, plasma, IV: single dose 30 mg/kg
[5] = female, rat, plasma, IVag: 30 mg/kg BID for 5 days

SMILES: Cc1ccc(C(=O)Nc2ccc(S(=O)(=O)O)c3cc(S(=O)(=O)O)cc(S(=O)(=O)O)c23)cc1NC(=O)c1cccc(NC(=O)Nc2cccc(C(=O)Nc3cc(C(=O)Nc4ccc(S(=O)(=O)O)c5cc(S(=O)(=O)O)cc(S(=O)(=O)O)c45)ccc3C)c2)c1 [Suramin, 8,8′-(carbonylbis(imino-3,1-phenylenecarbonylimino(4-methyl-3,1-phenylene)carbonylimino))bis-1,3,5-naphthalene trisulfonic acid]
- cytotoxicity in comparative study [1]: the least cytotoxic of them all
- effect on growth of Lactobacillus gasseri (Lactobacillus gasseri; 5 mg/mL): no inhibitory effect
- growth of Lactobacillus gasseri, % of control (Lactobacillus gasseri; 5 mg/mL (highest concentration tested)): 107 % of control
- Potency, Lactobacilli (Doubling time) (Lactobacillus gasseri; max. concentration tested = 5 mg/mL): None
- inhibition (contraceptive), Vaginal Application (rabbit sperm; 1.25% in Replens): 100% inhibition
- inhibition, Vaginal Application (rabbit sperm; 2%): 44% at 2%
- inhibition, Vaginal Application Combo (rabbit sperm; 2% suramin + 2% sorbitan mono laurate or 0.1% N-9): 100% inhibition at
- reduction in PR (rabbit sperm; 5%, intravaginal administration): 75% inhibition
- Potency, Contraception, rabbit inseminated sperm (Vaginal Application) (rabbit sperm; rabbit, in vivo): Moderate
- Potency, Vaginal Application Combo (rabbit sperm; rabbit, in vivo): High
- Potency, Vaginal Application, Replens (rabbit sperm; rabbit, in vivo): High
- effect on spontaneous and ionophore-induced acrosome reaction [2]: neither to stimulate spontaneous acrosome reaction (acrosomal loss) nor to block the Ca^2+ ionophore-induced reaction
- Percentage of acrosome-reacted Sperm ([2]; Calcium-ionophore treatment (5 μM A23187): +): 31.4 ± 15.1%
- Percentage of acrosome-reacted Sperm ([2]; Calcium-ionophore treatment (5 μM A23187): −): 5.28 ± 1.93%
- Potency, Acrosome Reaction (ARIC) ([2]; induction or inhibition of acrosome reaction): None
- clinical signs ([3]; 30 mg/kg I.V. or intravaginally BID 5 days): No clinical signs were observed
- t½ ([3]; IV: single dose 30 mg/kg, 30 mg/kg): 68.6 h
- Kel ([3]; IV: single intravenous dose of 30 mg/kg, female rats, plasma): 0.0102
- t½ ([3]; IVag: 30 mg/kg BID for 5 days, listed as Suramin sodium): 132 h
- Kel ([3]; IVag: intravaginal 30 mg/kg BID for 5 days in KY jelly): 0.005
- bioavailability after intravaginal administration ([3]; calculated from the total dose (90 mg) administered intravaginally): < 1%
- histological lesions in vagina, lungs, liver and kidneys ([3]; female rats receiving the intravenous solution): No histological lesions were observed
- AUC ([3]; female, rat, plasma, 30 mg/kg, IVag: 30 mg/kg BID for 5 days, zero to 144 hr post dose, read-out: AUC(tf)): 1170 µg·h/mL
- AUC ([3]; female, rat, plasma, 30 mg/kg, IVag: 30 mg/kg BID for 5 days, zero to infinity, read-out: AUC(I)): 2280 µg·h/mL
- half-life ([3]; female, rat, plasma, 30 mg/kg, intravaginal administration, read-out: mean half-life (converted)): ~132 h
- bioavailability ([3]; female, rat, plasma, 90 mg, calculated from the total dose (90 mg) administered intravaginally, read-out: bioavailability after intravaginal administration): 0.8%
- half-life ([3]; female, rat, plasma, iv, 30 mg/kg, IV: single dose 30 mg/kg, read-out: t½ (converted)): 68.5 h
- AUC ([3]; female, rat, plasma, iv, 30 mg/kg, IV: single dose 30 mg/kg, zero to 144 hr post dose, read-out: AUC(tf)): 13900 µg·h/mL
- AUC ([3]; female, rat, plasma, iv, 30 mg/kg, IV: single dose 30 mg/kg, zero to infinity, read-out: AUC(I)): 17300 µg·h/mL
- clearance [3, 4]: 0.0292 mL/min
- Vd [3, 4]: 0.147 L/kg
- Cmax ([3]; female, rat, plasma, IV: single intravenous dose of 30 mg/kg, at 1 hour): 563 µg/mL
- clearance [3, 5]: 0.0001 mL/min
- Cmax ([3]; female, rat, plasma, IVag: 30 mg/kg BID for 5 days, at 3.5 hours following the last dose): 17.7 µg/mL
- Vd [3, 5]: 0.132 L/kg
- Potency, HSV-2 Plaque (HSV-2): High
- inhibition at 100 µg/mL (HSV-2; Human alphaherpesvirus 2, 100 μg/mL, read-out: inhibition of viral infectivity, plaque assay): 100%
- IC50 (HSV-2; Human alphaherpesvirus 2, read-out: IC50 against HSV-2): 1 µg/mL (≈ 0.771 µM)
